Molecular target: T1, GST-tagged truncated LRRK2 (Homo sapiens, UniProt Q5S007)
T1 construct: GST-tagged truncated LRRK2 from Invitrogen (Cat # PV4874); GST; purchased Invitrogen PV4874
Experiment: LRRK2 kinase assay (Lantha Screen)
Type: biochemical
Conditions: 1 mM ATP (head); a = geometric mean of >=4 determinations, b = single determination; read-out: LRRK2 LANTHA EC50 at 1 mM ATP; Geometric mean of 2-3 determinations unless otherwise indicated
Procedure: LRRK2 kinase activity was measured using Lantha Screen technology from Invitrogen. GST-tagged truncated LRRK2 from Invitrogen (Cat # PV4874) was incubated with a fluorescein-labeled peptide substrate based upon ezrin/radixin/moesin (ERM), also known as LRRKtide (Invitrogen cat # PR8976A), in the presence of a dose response of compound. Upon completion, the assay was stopped and detected with a terbium labeled anti-phospho-ERM antibody (Invitrogen, cat # PR8975A). […] The compound dose response was prepared by diluting compound to a top concentration of 3.16 mM in 100% DMSO and serial diluted by half-log in DMSO 11 times. Aliquots (3.5 μL) of the 100% DMSO dose response were mixed with 46.5 μL water then 1 μL of this mixture was added to the 3 μL substrate mix in the 384-well plate. The kinase reaction was started with 3 μL of a working solution of LRRK2 enzyme at a concentration of 4 μg/mL. […] The reaction was allowed to progress at room temperature for two hours and then stopped with the addition of 7 μL of detection buffer (20 mM Tris pH 7.6, 0.01% NP-40, 0.02% NaN3, 6 mM EDTA with 2 nM terbium labeled anti-phospho-ERM). After an incubation of 1 hour at room temperature, the plate was read on an Envision with an excitation wavelength of 340 nm and a reading emission at both 520 nm and 495 nm. The ratio of the 520 nm and 495 nm emission was used to analyze the data.

T1 sequence (Q5S007 970-2527 limits assumed): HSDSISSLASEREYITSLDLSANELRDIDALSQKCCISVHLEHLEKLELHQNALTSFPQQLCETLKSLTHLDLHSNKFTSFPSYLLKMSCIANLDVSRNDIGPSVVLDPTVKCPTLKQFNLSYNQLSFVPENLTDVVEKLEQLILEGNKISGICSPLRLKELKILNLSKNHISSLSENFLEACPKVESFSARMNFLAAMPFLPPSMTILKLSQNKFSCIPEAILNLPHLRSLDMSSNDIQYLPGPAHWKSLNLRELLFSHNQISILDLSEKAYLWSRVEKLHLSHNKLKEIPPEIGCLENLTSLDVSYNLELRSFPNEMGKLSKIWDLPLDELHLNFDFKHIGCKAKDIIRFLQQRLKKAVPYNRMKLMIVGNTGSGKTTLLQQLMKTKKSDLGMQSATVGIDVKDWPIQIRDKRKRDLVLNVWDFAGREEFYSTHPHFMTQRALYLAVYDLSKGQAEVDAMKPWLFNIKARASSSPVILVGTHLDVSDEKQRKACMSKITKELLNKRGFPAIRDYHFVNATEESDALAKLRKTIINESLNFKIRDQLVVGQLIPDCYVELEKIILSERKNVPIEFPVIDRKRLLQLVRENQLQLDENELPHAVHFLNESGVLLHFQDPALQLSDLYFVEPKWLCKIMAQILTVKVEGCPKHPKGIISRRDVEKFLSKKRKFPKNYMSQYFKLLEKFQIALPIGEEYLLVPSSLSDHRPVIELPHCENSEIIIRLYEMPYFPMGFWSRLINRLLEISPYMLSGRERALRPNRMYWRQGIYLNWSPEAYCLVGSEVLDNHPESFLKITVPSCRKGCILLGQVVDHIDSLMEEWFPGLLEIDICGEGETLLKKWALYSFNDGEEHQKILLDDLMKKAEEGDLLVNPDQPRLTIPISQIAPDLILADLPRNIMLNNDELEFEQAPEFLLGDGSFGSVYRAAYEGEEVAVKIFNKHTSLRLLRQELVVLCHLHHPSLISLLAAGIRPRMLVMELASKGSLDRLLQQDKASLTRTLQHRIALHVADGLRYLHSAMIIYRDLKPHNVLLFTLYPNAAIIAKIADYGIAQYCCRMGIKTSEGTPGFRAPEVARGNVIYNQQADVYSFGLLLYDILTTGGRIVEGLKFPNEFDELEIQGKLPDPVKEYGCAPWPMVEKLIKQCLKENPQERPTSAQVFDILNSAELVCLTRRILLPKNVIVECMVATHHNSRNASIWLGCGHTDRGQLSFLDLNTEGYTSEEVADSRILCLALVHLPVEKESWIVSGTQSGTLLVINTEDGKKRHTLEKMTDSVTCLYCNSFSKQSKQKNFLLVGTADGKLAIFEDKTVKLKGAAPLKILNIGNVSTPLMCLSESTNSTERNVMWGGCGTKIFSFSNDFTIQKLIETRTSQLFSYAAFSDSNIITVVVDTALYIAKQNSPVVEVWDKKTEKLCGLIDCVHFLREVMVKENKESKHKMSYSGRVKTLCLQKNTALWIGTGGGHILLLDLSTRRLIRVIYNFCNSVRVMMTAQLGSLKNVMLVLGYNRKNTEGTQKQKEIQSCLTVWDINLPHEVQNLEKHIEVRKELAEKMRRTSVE

Row | Structure (SMILES) | EC50
1 | N#Cc1cccc(-c2c[nH]c3nccc(N4CCOCC4)c23)c1 [Example 1, 3-[4-(Morpholin-4-yl)-1H-pyrrolo[2,3-b]pyridin-3-yl]benzonitrile] | 4.28 nM
2 | N#Cc1cccc(-c2c[nH]c3nccc(N4CCOCC4)c23)c1F [Example 2, 2-Fluoro-3-[4-(morpholin-4-yl)-1H-pyrrolo[2,3-b]pyridin-3-yl]benzonitrile] | 5.17 nM
3 | c1cnn2c(-c3c[nH]c4nccc(N5CCOCC5)c34)cnc2c1 [Example 3, 3-[4-(Morpholin-4-yl)-1H-pyrrolo[2,3-b]pyridin-3-yl]imidazo[1,2-b]pyridazine] | 14 nM
4 | Cn1cc(-c2c[nH]c3nccc(N4CCOCC4)c23)cc1C#N [Example 4, 1-Methyl-4-[4-(morpholin-4-yl)-1H-pyrrolo[2,3-b]pyridin-3-yl]-1H-pyrrole-2-carbonitrile] | 2.85 nM
5 | Cn1cc(-c2c[nH]c3nccc(N4CCOCC4)c23)nc1C#N [Example 5, 1-Methyl-4-[4-(morpholin-4-yl)-1H-pyrrolo[2,3-b]pyridin-3-yl]-1H-imidazole-2-carbonitrile] | 5.26 nM
6 | Cn1cc(-c2c[nH]c3nncc(N4CCOCC4)c23)cc1C#N [Example 6, 1-Methyl-4-[4-(morpholin-4-yl)-7H-pyrrolo[2,3-c]pyridazin-5-yl]-1H-pyrrole-2-carbonitrile] | 14.2 nM
7 | Cn1cc(-c2c(Cl)[nH]c3nccc(N4CCOCC4)c23)cc1C#N [Example 7, 4-[2-Chloro-4-(morpholin-4-yl)-1H-pyrrolo[2,3-b]pyridin-3-yl]-1-methyl-1H-pyrrole-2-carbonitrile] | 1.3 nM
8 | Cc1[nH]c2nccc(N3CCOCC3)c2c1-c1cccc(C#N)c1 [Example 8, 3-[2-Methyl-4-(morpholin-4-yl)-1H-pyrrolo[2,3-b]pyridin-3-yl]benzonitrile] | 22.1 nM
9 | Cc1cc(N2CCOCC2)c2c(-c3cccc(C#N)c3)c[nH]c2n1 [Example 9, 3-[6-Methyl-4-(morpholin-4-yl)-1H-pyrrolo[2,3-b]pyridin-3-yl]benzonitrile] | 208 nM
10 | N#Cc1cccc(-c2c[nH]c3ncc(CO)c(N4CCOCC4)c23)c1 [Example 10, 3-[5-(Hydroxymethyl)-4-(morpholin-4-yl)-1H-pyrrolo[2,3-b]pyridin-3-yl]benzonitrile] | 79.8 nM
11 | N#Cc1cccc(-c2c[nH]c3ncc(C#N)c(N4CCOCC4)c23)c1 [Example 11, 3-(3-Cyanophenyl)-4-(morpholin-4-yl)-1H-pyrrolo[2,3-b]pyridine-5-carbonitrile] | 24.2 nM
12 | Cn1cc(-c2c[nH]c3nccc(C4=CCOCC4)c23)cn1 [Example 12, 4-(3,6-Dihydro-2H-pyran-4-yl)-3-(1-methyl-1H-pyrazol-4-yl)-1H-pyrrolo[2,3-b]pyridine] | 59.6 nM
13 | Cn1cc(-c2c[nH]c3nccc(N4CCOCC4)c23)cn1 [Example 13, 3-(1-methyl-1H-pyrazol-4-yl)-4-(morpholin-4-yl)-1H-pyrrolo[2,3-b]pyridine] | 26.5 nM
14 | CN(C)c1c(C#N)cnc2[nH]cc(-c3cccc(C#N)c3F)c12 [Example 14, 3-(3-cyano-2-fluorophenyl)-4-(dimethylamino)-1H-pyrrolo[2,3-b]pyridine-5-carbonitrile] | 25.9 nM
15 | COc1ccc(F)cc1-c1c[nH]c2nccc(N3CCOCC3)c12 [Example 15, 3-(5-fluoro-2-methoxyphenyl)-4-(morpholin-4-yl)-1H-pyrrolo[2,3-b]pyridine] | 92.3 nM
16 | COc1cc(F)cc(-c2c[nH]c3nccc(N4CCOCC4)c23)c1 [Example 16, 3-(3-fluoro-5-methoxyphenyl)-4-(morpholin-4-yl)-1H-pyrrolo[2,3-b]pyridine] | 44.3 nM
17 | Cc1[nH]c2nccc(N3CCOCC3)c2c1-c1cnn(C)c1 [Example 17, 2-methyl-3-(1-methyl-1H-pyrazol-4-yl)-4-(morpholin-4-yl)-1H-pyrrolo[2,3-b]pyridine] | 137 nM
18 | Cc1cc(N2CCOCC2)c2c(-c3cccc(C#N)c3F)c[nH]c2n1 [Example 18, 2-fluoro-3-[6-methyl-4-(morpholin-4-yl)-1H-pyrrolo[2,3-b]pyridin-3-yl]benzonitrile] | 95.4 nM
19 | N#Cc1cccc(-c2c[nH]c3nccc(N4CCOCC4)c23)n1 [Example 19, 6-[4-(morpholin-4-yl)-1H-pyrrolo[2,3-b]pyridin-3-yl]pyridine-2-carbonitrile] | 47.5 nM
20 | Clc1cccc(-c2c[nH]c3nccc(N4CCOCC4)c23)c1 [Example 20, 3-(3-chlorophenyl)-4-(morpholin-4-yl)-1H-pyrrolo[2,3-b]pyridine] | 53.7 nM
21 | Fc1cc(Cl)cc(-c2c[nH]c3nccc(N4CCOCC4)c23)c1 [Example 21, 3-(3-chloro-5-fluorophenyl)-4-(morpholin-4-yl)-1H-pyrrolo[2,3-b]pyridine] | 51.5 nM

Row | Structure (SMILES) | EC50
22 | Fc1ccc(F)c(-c2c[nH]c3nccc(N4CCOCC4)c23)c1 [Example 22, 3-(2,5-difluorophenyl)-4-(morpholin-4-yl)-1H-pyrrolo[2,3-b]pyridine] | 130 nM
23 | Clc1ccccc1-c1c[nH]c2nccc(N3CCOCC3)c12 [Example 23, 3-(2-chlorophenyl)-4-(morpholin-4-yl)-1H-pyrrolo[2,3-b]pyridine] | 143 nM
24 | Fc1cccc(-c2c[nH]c3nccc(N4CCOCC4)c23)c1F [Example 24, 3-(2,3-difluorophenyl)-4-(morpholin-4-yl)-1H-pyrrolo[2,3-b]pyridine] | 16.8 nM
25 | Fc1cccc(-c2c[nH]c3nccc(N4CCOCC4)c23)c1 [Example 25, 3-(3-fluorophenyl)-4-(morpholin-4-yl)-1H-pyrrolo[2,3-b]pyridine] | 34.5 nM
26 | Fc1ccccc1-c1c[nH]c2nccc(N3CCOCC3)c12 [Example 26, 3-(2-fluorophenyl)-4-(morpholin-4-yl)-1H-pyrrolo[2,3-b]pyridine] | 29 nM
27 | Fc1ccc(Cl)cc1-c1c[nH]c2nccc(N3CCOCC3)c12 [Example 27, 3-(5-chloro-2-fluorophenyl)-4-(morpholin-4-yl)-1H-pyrrolo[2,3-b]pyridine] | 57.6 nM
28 | OCc1cccc(-c2c[nH]c3nccc(N4CCOCC4)c23)c1 [Example 28, {3-[4-(morpholin-4-yl)-1H-pyrrolo[2,3-b]pyridin-3-yl]phenyl}methanol] | 96.3 nM
29 | OCc1ccc(F)c(-c2c[nH]c3nccc(N4CCOCC4)c23)c1 [Example 29, {4-fluoro-3-[4-(morpholin-4-yl)-1H-pyrrolo[2,3-b]pyridin-3-yl]phenyl}methanol] | 72.5 nM
30 | Cc1nnc(-c2cccc(-c3c[nH]c4nccc(N5CCOCC5)c34)c2)o1 [Example 30, 3-[3-(5-methyl-1,3,4-oxadiazol-2-yl)phenyl]-4-(morpholin-4-yl)-1H-pyrrolo[2,3-b]pyridine] | 179 nM
31 | COc1cccc(-c2c[nH]c3nccc(N4CCOCC4)c23)c1 [Example 31, 3-(3-methoxyphenyl)-4-(morpholin-4-yl)-1H-pyrrolo[2,3-b]pyridine] | 124 nM
32 | Fc1c(Cl)cccc1-c1c[nH]c2nccc(N3CCOCC3)c12 [Example 32, 3-(3-chloro-2-fluorophenyl)-4-(morpholin-4-yl)-1H-pyrrolo[2,3-b]pyridine] | 40.7 nM
33 | Fc1cc(F)c(F)c(-c2c[nH]c3nccc(N4CCOCC4)c23)c1 [Example 33, 4-(morpholin-4-yl)-3-(2,3,5-trifluorophenyl)-1H-pyrrolo[2,3-b]pyridine] | 69.7 nM
34 | Fc1cc(F)cc(-c2c[nH]c3nccc(N4CCOCC4)c23)c1 [Example 34, 3-(3,5-difluorophenyl)-4-(morpholin-4-yl)-1H-pyrrolo[2,3-b]pyridine] | 43.3 nM
35 | Clc1ncccc1-c1c[nH]c2nccc(N3CCOCC3)c12 [Example 35, 3-(2-chloropyridin-3-yl)-4-(morpholin-4-yl)-1H-pyrrolo[2,3-b]pyridine] | 110 nM
36 | c1ccc(-c2c[nH]c3nccc(N4CCOCC4)c23)cc1 [Example 36, 4-(morpholin-4-yl)-3-phenyl-1H-pyrrolo[2,3-b]pyridine] | 49.7 nM
37 | Fc1ccc(-c2c[nH]c3nccc(N4CCOCC4)c23)c(F)c1 [Example 37, 3-(2,4-difluorophenyl)-4-(morpholin-4-yl)-1H-pyrrolo[2,3-b]pyridine] | 147 nM
38 | Cc1cc(F)cc(-c2c[nH]c3nccc(N4CCOCC4)c23)c1 [Example 38, 3-(3-fluoro-5-methylphenyl)-4-(morpholin-4-yl)-1H-pyrrolo[2,3-b]pyridine] | 22.9 nM
39 | N#Cc1cc(F)cc(-c2c[nH]c3nccc(N4CCOCC4)c23)c1 [Example 39, 3-fluoro-5-[4-(morpholin-4-yl)-1H-pyrrolo[2,3-b]pyridin-3-yl]benzonitrile] | 140 nM
40 | COc1ccc(F)c(F)c1-c1c[nH]c2nccc(N3CCOCC3)c12 [Example 40, 3-(2,3-difluoro-6-methoxyphenyl)-4-(morpholin-4-yl)-1H-pyrrolo[2,3-b]pyridine] | 105 nM
41 | N#Cc1cc(-c2c[nH]c3nccc(N4CCOCC4)c23)ccc1F [Example 41, 2-fluoro-5-[4-(morpholin-4-yl)-1H-pyrrolo[2,3-b]pyridin-3-yl]benzonitrile] | 226 nM
